Measured values: patent US20170066717A1, “NEW PHENYLAZETIDINECARBOXYLATE OR -CARBOXAMIDE COMPOUNDS” (INVENTIVA, priority 2014, published 2017)

Legend:
NURR-1/RXRα = target: T1, NURR-1/RXRα (Homo sapiens, UniProt P19793); test: Transactivation test, NURR-1-Gal4/RXRα, luciferase reporter in Cos-7 cells; format: cell-based; settings: for Emax: COS-7, induction level relative to reference XCT0135908 at 2×10^−5 M (=100%), read-out: hNurr1_RXRaFL Emax (%); for EC50: Cos-7 cells, NURR-1-Gal4/RXRα, luciferase reporter, read-out: hNurr1_RXRaFL EC50
T1 construct: expressed in transfected cells; host or cells: Cos-7 cells
T1 sequence (P19793 whole entry, the tested form may be a part): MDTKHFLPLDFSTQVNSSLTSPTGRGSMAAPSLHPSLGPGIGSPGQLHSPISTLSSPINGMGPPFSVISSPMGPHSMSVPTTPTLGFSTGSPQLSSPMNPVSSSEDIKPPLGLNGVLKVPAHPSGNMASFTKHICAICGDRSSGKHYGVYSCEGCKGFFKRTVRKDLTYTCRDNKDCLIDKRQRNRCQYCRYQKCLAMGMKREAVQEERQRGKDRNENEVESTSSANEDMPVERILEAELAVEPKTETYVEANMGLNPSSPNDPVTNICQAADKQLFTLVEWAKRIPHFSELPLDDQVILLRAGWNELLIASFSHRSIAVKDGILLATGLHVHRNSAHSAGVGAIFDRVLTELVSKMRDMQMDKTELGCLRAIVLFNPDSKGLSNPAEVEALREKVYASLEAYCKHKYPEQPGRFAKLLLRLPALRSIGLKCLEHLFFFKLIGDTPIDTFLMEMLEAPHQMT
T1 sequence (P43354 whole entry partner, the tested form may be a part): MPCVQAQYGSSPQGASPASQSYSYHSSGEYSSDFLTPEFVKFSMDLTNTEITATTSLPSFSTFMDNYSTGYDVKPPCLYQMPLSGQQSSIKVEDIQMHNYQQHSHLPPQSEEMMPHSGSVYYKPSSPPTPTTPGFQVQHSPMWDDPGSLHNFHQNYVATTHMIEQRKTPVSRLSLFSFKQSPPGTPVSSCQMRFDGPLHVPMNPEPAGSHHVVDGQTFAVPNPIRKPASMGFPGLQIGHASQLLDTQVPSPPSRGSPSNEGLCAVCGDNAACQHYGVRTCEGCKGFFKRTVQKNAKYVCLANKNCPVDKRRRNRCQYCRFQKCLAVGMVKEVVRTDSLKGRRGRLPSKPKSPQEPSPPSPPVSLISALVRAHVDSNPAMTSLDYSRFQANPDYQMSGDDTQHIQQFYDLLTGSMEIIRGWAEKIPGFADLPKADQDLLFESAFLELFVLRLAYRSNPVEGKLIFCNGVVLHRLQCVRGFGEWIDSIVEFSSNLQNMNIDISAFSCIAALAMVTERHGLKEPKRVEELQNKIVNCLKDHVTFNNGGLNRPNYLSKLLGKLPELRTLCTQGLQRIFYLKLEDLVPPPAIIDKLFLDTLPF
T1 sequence (P04386 1-147 partner limits assumed): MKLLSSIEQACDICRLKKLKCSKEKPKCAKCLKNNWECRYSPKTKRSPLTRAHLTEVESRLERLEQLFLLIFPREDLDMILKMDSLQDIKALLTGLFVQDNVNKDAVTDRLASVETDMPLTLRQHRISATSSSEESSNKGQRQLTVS

NURR-1/RXRγ = target: T2, NURR-1/RXRγ (Homo sapiens, UniProt P48443); test: Transactivation test, NURR-1-Gal4/RXRγ, luciferase reporter in Cos-7 cells; format: cell-based; settings: for Emax: COS-7, induction level relative to reference XCT0135908 at 2×10^−5 M (=100%), read-out: hNurr1_RXRgFL Emax (%); for EC50: Cos-7 cells, NURR-1-Gal4/RXRγ, luciferase reporter, read-out: hNurr1_RXRgFL EC50
T2 construct: expressed in transfected cells; host or cells: Cos-7 cells
T2 sequence (P48443 whole entry, the tested form may be a part): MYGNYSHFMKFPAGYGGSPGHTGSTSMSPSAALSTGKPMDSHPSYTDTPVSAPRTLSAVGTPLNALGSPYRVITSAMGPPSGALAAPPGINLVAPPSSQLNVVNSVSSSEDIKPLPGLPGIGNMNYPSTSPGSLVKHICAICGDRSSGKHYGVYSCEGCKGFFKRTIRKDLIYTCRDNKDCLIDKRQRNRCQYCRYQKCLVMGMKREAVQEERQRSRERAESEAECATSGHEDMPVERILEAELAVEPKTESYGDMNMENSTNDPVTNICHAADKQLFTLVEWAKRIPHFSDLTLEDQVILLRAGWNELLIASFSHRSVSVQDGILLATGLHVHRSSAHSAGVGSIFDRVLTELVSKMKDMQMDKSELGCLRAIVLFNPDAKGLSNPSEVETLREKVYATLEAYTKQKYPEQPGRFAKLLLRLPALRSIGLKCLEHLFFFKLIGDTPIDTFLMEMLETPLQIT
T2 sequence (P43354 whole entry partner, the tested form may be a part): as the sequence (P43354 whole entry partner, the tested form may be a part) above
T2 sequence (P04386 1-147 partner limits assumed): as the sequence (P04386 1-147 partner limits assumed) above

[1] = induction level relative to reference XCT0135908 at 2×10^−5 M (=100%)

| Structure (SMILES) | Emax (NURR-1/RXRα) [%] | EC50 (NURR-1/RXRα) [nM] | Emax (NURR-1/RXRγ) [%] | EC50 (NURR-1/RXRγ) [nM] | hNurr1_RXRaFL Emax (%) (NURR-1/RXRα; [1]) | hNurr1_RXRgFL Emax (%) (NURR-1/RXRγ; [1]) |
| --- | --- | --- | --- | --- | --- | --- |
| Cc1cn(-c2cccc(N3CC(C(=O)NC4CCCC4)C3)c2)c2ccc(C(F)(F)F)cc12 [Example 166, N-cyclopetnyl-1-[3-[3-methyl-5-(trifluoromethyl)indol-1-yl]phenyl]azetidine-3-carboxamide] | 104 | 25 | 113 | 41 | – | – |
| CC1(C)CN(c2cccc(N3CC(C(=O)O)C3)c2)c2ccc(Br)cc2O1 [Example 222, sodium 1-[3-(7-bromo-2,2-dimethyl-3H-1,4-benzoxazin-4-yl)phenyl]azetidine-3-carbxoylate] | 115 | 19 | 94 | 27 | – | – |
| Cc1cc(-c2cc(C(F)(F)F)nc3ccccc23)cc(N2CC(C(=O)O)C2)c1 [Example 21, 1-[3-methyl-5-[2-(trifluoromethyl)-4-quinolyl]phenyl]azetidine-3-carboxylic acid] | 102 | 13 | 101 | 4 | – | – |
| Cc1cc(-c2cc(F)cc(Cl)c2)cc(N2CC(C(=O)O)C2)c1 [Example 18, 1-[3-(3-chloro-5-fluorophenyl)-5-methylphenyl]azetidine-3-carboxylic acid] | 95 | 67 | 93 | 157 | – | – |
| CN1CC(C)(C)Oc2cc(C(F)(F)F)cc(-c3cccc(N4CC(C(=O)O)C4)c3)c21 [Example 63, 1-[3-[2,2,4-trimethyl-7-(trifluoromethyl)-3H-1,4-benzoxazine-5-yl]phenyl]azetidine-3-carboylic acid] | 86 | 2 | 82 | 5 | – | – |
| Cc1cc(-c2ccc3c(c2)C(C)(C)CCC3(C)C)cc(N2CC(C(=O)O)C2)c1 [Example 9, 1-[3-methyl-5-(1,1,4,4-tetramethyltetralin-6-yl)phenyl]azetidine-3-carboxylic acid] | 82 | 7 | 86 | 16 | – | – |
| CC(C)C(Oc1ccc(C(F)(F)F)cc1-c1cccc(N2CC(C(=O)O)C2)c1)C(C)C [Example 101, 1-[3-[2-(1-isopropyl-2-methlypropoxy)-5-(trifluoromethyl)phenyl]phenyl]azetidine-3-carboxylic acid] | 55 | 118 | 41 | 60 | – | – |
| CC1(C)CN(c2cccc(N3CC(C(=O)NCC(O)CO)C3)c2)c2ccc(C(F)(F)F)cc2O1 (stereo not drawn) [Example 277, N-(2,3-dihydroxypropyl)-1-[3-[2,2-dimethyl-7-(trifluoromethyl)-3H-1,4-benzoxazin-4-yl]phenyl]azetidine-3-carboxamide] | 103 | 19 | 97 | 52 | – | – |
| Cc1cn(-c2cccc(N3CC(C(=O)NCCCCN(C)C)C3)c2)c2ccc(C(F)(F)F)cc12 [Example 175, N-[4-(dimethylamino)butyl]-1-[3-[3-methyl-5-(trifluoromethyl)indol-1yl]phenyl]-azatidine-3-carboxamide] | 77 | 647 | 84 | 1260 | – | – |
| CN(C)c1cc(C(F)(F)F)cc(-c2cccc(N3CC(C(=O)O)C3)c2)n1 [Example 80, 1-[3-[6-(dimethylamino)-4-(trifluoromethyl)2-pyridyl]phenyl]azetidine-3-carboxylic acid] | 104 | 316 | 89 | 335 | – | – |
| O=C(O)C1CN(c2cccc(N3CC4(CCCC4)c4cc(Cl)ccc43)c2)C1 [Example 257, tert-butylammonium 1-[3-(5′-chlorospiro[cyclopentane-1,3′-indolin]-1′-yl)phenyl]azetidine-3-carboxyate] | 103 | 23 | 89 | 59 | – | – |
| O=C(O)C1CN(c2cccc(N3C(=O)C4(CCC4)Oc4cc(C(F)(F)F)ccc43)c2)C1 [Example 121, 1-[3-[3-oxo-7-(trifluromethyl)spiro[3H1,4-benzoxazine-2,1′-cyclobutane]-4yl]phenyl]azetidine-3-carboxylic acid] | 122 | 12 | 133 | 13 | – | – |
| Cc1cn(-c2cccc(N3CC(C(=O)NC4CCC4)C3)c2)c2ccc(C(F)(F)F)cc12 [Example 179] | 119 | 8 | 144 | 12 | – | – |
| Cc1cn(-c2cc(N3CC(C(=O)O)C3)cc(C(F)(F)F)c2)c2ccc(C(F)(F)F)cc12 [Example 43, 1-[3-[3-methyl-5-(trifluoromethyl)indol-1-yl]-5-(trifluoromethyl)phenyl]azetidine-3-carboxylic acid] | 84 | 6 | 90 | 9 | – | – |
| CN1CC2(CCC2)Oc2cc(C(F)(F)F)cc(-c3cccc(N4CC(C(=O)O)C4)c3)c21 [Example 203, sodium 1-[3-[4-methul-7-(trifluoromethyl)spiro[3H-1,4-benzoxazine-2,1′-cyclobutane]-5-yl]phenyl]azetidine-3-carboxylate] | 80 | 0.69 | 63 | 4 | – | – |
| Cc1cc(-c2cccc(C(F)(F)F)c2F)cc(N2CC(C(=O)O)C2)c1 [Example 23, 1-[3-[2-fluoro-3-(trifluoromethyl)phenyl]-5-methylphenyl]azetidine-3-carboxylic acid] | 111 | 13 | 107 | 30 | – | – |
| Cc1cc(-c2cccc(OC(F)(F)F)c2)cc(N2CC(C(=O)O)C2)c1 [Example 1, 1-[3-methyl-5-[3-(trifluoromethoxy)phenyl]phenyl]azetidine-3-carboxylic acid] | 122 | 41 | 108 | 69 | – | – |
| O=C(O)C1CN(c2cccc(-c3cc(C(F)(F)F)ccc3OCc3ccccc3Cl)c2)C1 [Example 97, 1-[3-[2-[(2-chlorophenyl)methyoxy]-5-(trifluoromethyl)phenyl]phenyl]azetidine-3-carboxylic acid] | 49 | 12 | 38 | 13 | – | – |
| Cc1cn(-c2cccc(N3CC(C(=O)NCCCCO)C3)c2)c2ccc(C(F)(F)F)cc12 [Example 156, N-(4-hydroxybutyl)-1-[3-[3-methyl-5-(trifluorometyl)indol-1-yl]phenyl]azetidine-3-carboxamide] | 105 | 3 | 117 | 4 | – | – |
| Cc1cc(-c2cccc(N3CC(C(=O)O)C3)c2)nc(-c2ccccc2)n1 [Example 39, 1-[3-(6-methyl-2-phenylpyrimidin-4-yl)phenyl]azetidine-3-carboxylic acid] | 104 | 208 | 110 | 472 | – | – |
| Cc1cc(-c2cccc(N(C)C)c2)cc(N2CC(C(=O)O)C2)c1 [Example 26, 1-[3-[3-(dimethylamino)phenyl]-5-methylphenyl]azetidine-3-carboxylic acid] | 108 | 124 | 116 | 314 | – | – |
| Cc1cc(-c2cc(F)cc(C(F)(F)F)c2)cc(N2CC(C(=O)O)C2)c1 [Example 8, 1-[3-[3-fluoro-5-(trifluoromethyl)phenyl]-5-methluphenyl]azetidine-3-carboxylic acid] | 107 | 5 | 107 | 12 | – | – |
| Cc1cc(N2CC(C(=O)O)C2)cc(-n2cc(Cl)c3cc(C(F)(F)F)ccc32)c1 [Example 57, 1-[3-[3-chloro-5-(triflurooemthyl)indol-1-yl]-5-methylphenyl]azetidine-3-carboxylic acid] | – | 1 | – | 2 | 126 | 114 |
| CN(C)c1nc(-c2cccc(N3CC(C(=O)O)C3)c2)cc(C(F)(F)F)n1 [Example 79, 1-[3-[2-(dimethylamino)-6-(trifluoromethyl)pyrimidin-4-yl]phenyl]azetidine-3-carboxylic acid] | 115 | 177 | 88 | 543 | – | – |
| CC(=O)NCCCNC(=O)C1CN(c2cccc(-n3cc(C)c4cc(C(F)(F)F)ccc43)c2)C1 [Example 182, N-(3-acetamidopropyl)-1-[3-[3-methyl-5-(trifluoromethyl)indol-1-yl]phenyl]azetidine-3-carboxylate] | 98 | 7 | 111 | 14 | – | – |
| Cc1cn(-c2cccc(N3CC(C(=O)O)C3)c2)c2ccc(C3CC3)cc12 [Example 46] | 104 | 19 | 130 | 31 | – | – |
| Cn1ccc(COc2ccc(C(F)(F)F)cc2-c2cccc(N3CC(C(=O)O)C3)c2)n1 [Example 108, 1-[3-[2-[(1-methylpyrazol-3-yl)methoxy]-5-(trifluoromethyl)phenyl]phenyl]azetidine-3-carboxylic acid] | 53 | 82 | 54 | 112 | – | – |
| Cn1cc(-c2cc(Cl)cc(N3CC(C(=O)O)C3)c2)c2ccc(C(F)(F)F)cc21 [Example 29] | 78 | – | 85 | – | – | – |
| Cc1cc(C)cc(COc2ccc(C(F)(F)F)cc2-c2cccc(N3CC(C(=O)O)C3)c2)c1 [Example 106, 1-[3-[2-[(3,5-dimethylphenyl)methoxy]-5-(trifluoromethyl)phenyl]phenyl]azetidine-3-carboxylic acid] | 40 | 13 | 36 | 13 | – | – |
